Tests used:
Experiment in all cases: NCI 60 one dose (10 μM) anticancer assay
Assay type in all cases: cell-based
SNB-75 = conditions: Homo sapiens, 10 µM one dose, CNS Cancer, read-out: Growth Inhibition % SNB-75
Method: (§1) Some of the synthesized compounds were selected by the NCI, Bethesda, MD, USA for evaluation of their anticancer activity. An in vitro one dose (10 μM) anticancer assay was conducted on a full NCI 60-cell line panel derived from 9 different cancer types. Table 2 presents the percent of growth inhibition of some cell lines. […] K-562 and MOLT-4 from leukemia, NCI-H522 from non-small cell lung cancer, HCT-116 from colon cancer, SK-MEL-5 and UACC-62 from melanoma, UO-31 from renal cancer, PC-3 from prostate cancer and HS 578T and T-47D from breast cancer are the most sensitive cell lines to the tested compounds. No growth inhibition was observed from the selected compounds against COLO205, HCC-2998, MALME-3M, SK-MEL-28, DU-145 and BT-549 cell lines. […] Against UO-31 from renal cancer and PC-3 from prostate cancer, it inhibited the growth of 44% and 58% of the cancer cells, respectively.

UACC-62 = conditions: Homo sapiens, 10 µM one dose, Melanoma, read-out: Growth Inhibition % UACC-62
Method: as §1

CCRF-CEM = conditions: Homo sapiens, 10 µM one dose, Leukemia, read-out: Growth Inhibition % CCRF-CEM
Method: as §1

MCF7 = conditions: Homo sapiens, 10 µM one dose, Breast Cancer, read-out: Growth Inhibition % MCF7
Method: as §1

OVCAR-5 = conditions: Homo sapiens, 10 µM one dose, Ovarian Cancer, read-out: Growth Inhibition % OVCAR-5
Method: as §1

MOLT-4 = conditions: Homo sapiens, 10 µM one dose, Leukemia, read-out: Growth Inhibition % MOLT-4
Method: as §1

HT29 = conditions: Homo sapiens, HT-29; 10 µM one dose; Colon Cancer; read-out: Growth Inhibition % HT29
Method: as §1

U251 = conditions: Homo sapiens, U-251; 10 µM one dose; CNS Cancer; read-out: Growth Inhibition % U251
Method: as §1

SK-MEL-5 = conditions: Homo sapiens, 10 µM one dose, Melanoma, read-out: Growth Inhibition % SK-MEL-5
Method: as §1

NCI-H226 = conditions: Homo sapiens, 10 µM one dose, Non-small cell lung Cancer, read-out: Growth Inhibition % NCI-H226
Method: as §1

TK-10 = conditions: Homo sapiens, 10 µM one dose, Renal Cancer, read-out: Growth Inhibition % TK-10
Method: as §1

CAK1-1 = conditions: 10 µM one dose; Renal Cancer; read-out: Growth Inhibition % CAK1-1
Method: as §1

HOP-62 = conditions: Homo sapiens, 10 µM one dose, Non-small cell lung Cancer, read-out: Growth Inhibition % HOP-62
Method: as §1

NCI-H23 = conditions: Homo sapiens, 10 µM one dose, Non-small cell lung Cancer, read-out: Growth Inhibition % NCI-H23
Method: as §1

SF-268 = conditions: Homo sapiens, 10 µM one dose, CNS Cancer, read-out: Growth Inhibition % SF-268
Method: as §1

OVCAR-8 = conditions: Homo sapiens, 10 µM one dose, Ovarian Cancer, read-out: Growth Inhibition % OVCAR-8
Method: as §1

KM12 = conditions: Homo sapiens, 10 µM one dose, Colon Cancer, read-out: Growth Inhibition % KM12
Method: as §1

HCT-116 = conditions: Homo sapiens, 10 µM one dose, Colon Cancer, read-out: Growth Inhibition % HCT-116
Method: as §1

OVCAR-4 = conditions: Homo sapiens, 10 µM one dose, Ovarian Cancer, read-out: Growth Inhibition % OVCAR-4
Method: as §1

MDA-MB-231/ATTC = conditions: Homo sapiens, 10 µM one dose, Breast Cancer, read-out: Growth Inhibition % MDA-MB-231/ATTC
Method: as §1

NCI-H322M = conditions: Homo sapiens, 10 µM one dose, Non-small cell lung Cancer, read-out: Growth Inhibition % NCI-H322M
Method: as §1

MDA-MB-435 = conditions: Homo sapiens, 10 µM one dose, Melanoma, read-out: Growth Inhibition % MDA-MB-435
Method: as §1

T-47D = conditions: Homo sapiens, T47D; 10 µM one dose; Breast Cancer; read-out: Growth Inhibition % T-47D
Method: as §1

RXF 393 = conditions: Homo sapiens, 10 µM one dose, Renal Cancer, read-out: Growth Inhibition % RXF 393
Method: as §1

HL-60(TB) = conditions: Homo sapiens, 10 µM one dose, Leukemia, read-out: Growth Inhibition % HL-60(TB)
Method: as §1

UO-31 = conditions: Homo sapiens, 10 µM one dose, Renal Cancer, read-out: Growth Inhibition % UO-31
Method: as §1

SNB-19 = conditions: Homo sapiens, 10 µM one dose, CNS Cancer, read-out: Growth Inhibition % SNB-19
Method: as §1

HCT-15 = conditions: Homo sapiens, 10 µM one dose, Colon Cancer, read-out: Growth Inhibition % HCT-15
Method: as §1

EKVX = conditions: Homo sapiens, 10 µM one dose, Non-small cell lung Cancer, read-out: Growth Inhibition % EKVX
Method: as §1

786-0 = conditions: Homo sapiens, 10 µM one dose, Renal Cancer, read-out: Growth Inhibition % 786-0
Method: as §1

SMILES	inhibition at 10 µM (SNB-75) [%]	inhibition at 10 µM (UACC-62) [%]	inhibition at 10 µM (CCRF-CEM) [%]	inhibition at 10 µM (MCF7) [%]	inhibition at 10 µM (OVCAR-5) [%]	inhibition at 10 µM (MOLT-4) [%]	inhibition at 10 µM (HT29) [%]	inhibition at 10 µM (U251) [%]	inhibition at 10 µM (SK-MEL-5) [%]	inhibition at 10 µM (NCI-H226) [%]	inhibition at 10 µM (TK-10) [%]	inhibition at 10 µM (CAK1-1) [%]	inhibition at 10 µM (HOP-62) [%]	inhibition at 10 µM (NCI-H23) [%]	inhibition at 10 µM (SF-268) [%]	inhibition at 10 µM (OVCAR-8) [%]	inhibition at 10 µM (KM12) [%]	inhibition at 10 µM (HCT-116) [%]	inhibition at 10 µM (MDA-MB-231/ATTC) [%]	inhibition at 10 µM (NCI-H322M) [%]	further results
C/C(=N\NC(=O)Cn1c(C(C)C)nc2ccccc21)c1ccccc1 [Compound 14a, (E)-2-(2-Isopropyl-1H-benzo[d]imidazol-1-yl)-N′-(1-phenylethylidene)acetohydrazide]	18	13	16	< 10	21	< 10	< 10	< 10	< 10	22	< 10	12	< 10	< 10	< 10	< 10	< 10	< 10	< 10	< 10	inhibition at 10 µM (OVCAR-4): < 10%; inhibition at 10 µM (MDA-MB-435): < 10%; inhibition at 10 µM (T-47D): < 10%; inhibition at 10 µM (RXF 393): 33%; inhibition at 10 µM (HL-60(TB)): < 10%; inhibition at 10 µM (UO-31): < 10%; inhibition at 10 µM (SNB-19): < 10%; inhibition at 10 µM (HCT-15): < 10%; inhibition at 10 µM (EKVX): < 10%; inhibition at 10 µM (786-0): < 10%
CC(C)c1nc2ccccc2n1CC(=O)N/N=C/c1cccc(OCc2ccccc2)c1 [Compound 17a, (E)-N′-(3-(Benzyloxy)benzylidene)-2-(2-isopropyl-1H-benzo[d]imidazol-1-yl)acetohydrazide]	15	41	41	< 10	< 10	50	< 10	< 10	50	29	< 10	< 10	< 10	39	< 10	< 10	< 10	66	25	< 10	inhibition at 10 µM (OVCAR-4): < 10%; inhibition at 10 µM (MDA-MB-435): < 10%; inhibition at 10 µM (T-47D): 32%; inhibition at 10 µM (RXF 393): < 10%; inhibition at 10 µM (HL-60(TB)): 32%; inhibition at 10 µM (UO-31): 44%; inhibition at 10 µM (SNB-19): 22%; inhibition at 10 µM (HCT-15): < 10%; inhibition at 10 µM (EKVX): 21%; inhibition at 10 µM (786-0): 24%
Cc1ccc(-c2nc3ccccc3n2CC(=O)N/N=C/c2cccc(OCc3ccccc3)c2)o1 [Compound 17b, (E)-N′-(3-(Benzyloxy)benzylidene)-2-(2-(5-methylfuran-2-yl)-1H-benzo[d]imidazol-1-yl)acetohydrazide]	39	29	28	48	14	58	29	36	33	25	10	33	15	14	37	26	23	32	25	21	inhibition at 10 µM (OVCAR-4): 21%; inhibition at 10 µM (MDA-MB-435): 21%; inhibition at 10 µM (T-47D): 49%; inhibition at 10 µM (RXF 393): 40%; inhibition at 10 µM (HL-60(TB)): 50%; inhibition at 10 µM (UO-31): 57%; inhibition at 10 µM (SNB-19): 21%; inhibition at 10 µM (HCT-15): 35%; inhibition at 10 µM (EKVX): 43%; inhibition at 10 µM (786-0): 26%
CC(C)c1nc2ccccc2n1CC(=O)N/N=C/c1ccc(OCc2ccccc2)cc1 [Compound 17c, (E)-N′-(4-(Benzyloxy)benzylidene)-2-(2-isopropyl-1H-benzo[d]imidazol-1-yl)acetohydrazide]	< 10	26	< 10	< 10	< 10	25	< 10	< 10	< 10	< 10	< 10	15	< 10	< 10	< 10	< 10	< 10	18	< 10	< 10	inhibition at 10 µM (MDA-MB-435): < 10%; inhibition at 10 µM (T-47D): 24%; inhibition at 10 µM (RXF 393): < 10%; inhibition at 10 µM (HL-60(TB)): < 10%; inhibition at 10 µM (UO-31): 28%; inhibition at 10 µM (SNB-19): < 10%; inhibition at 10 µM (HCT-15): < 10%; inhibition at 10 µM (EKVX): < 10%; inhibition at 10 µM (786-0): < 10%
Cc1ccc(-c2nc3ccccc3n2CC(=O)N/N=C/c2ccc(OCc3ccccc3)cc2)o1 [Compound 17d, (E)-N′-(4-(Benzyloxy)benzylidene)-2-(2-(5-methylfuran-2-yl)-1H-benzo[d]imidazol-1-yl)acetohydrazide]	20	< 10	< 10	19	< 10	40	< 10	< 10	15	< 10	< 10	21	17	< 10	23	20	< 10	< 10	18	20	inhibition at 10 µM (OVCAR-4): < 10%; inhibition at 10 µM (MDA-MB-435): < 10%; inhibition at 10 µM (T-47D): 31%; inhibition at 10 µM (RXF 393): < 10%; inhibition at 10 µM (HL-60(TB)): 19%; inhibition at 10 µM (UO-31): 30%; inhibition at 10 µM (SNB-19): < 10%; inhibition at 10 µM (HCT-15): 25%; inhibition at 10 µM (EKVX): 21%; inhibition at 10 µM (786-0): < 10%

From paper PMC7071059, “Targeting Receptor Tyrosine Kinase VEGFR-2 in Hepatocellular Cancer: Rational Design, Synthesis and Biological Evaluation of 1,2-Disubstituted Benzimidazoles” (Molecules, 2020)
